How the values were obtained:
Test in all cases: Kinase selectivity, scanMAX Kinase assay panel (DiscoverX), % control at 1 uM
Type in all cases: binding
[1] = molecular target: T1, scanMAX Kinase assay panel (Homo sapiens, UniProt P19784); conditions: CSNK2A2; 1 uM; read-out: Percent Control (%)
T1 construct: purchased DiscoverX
Description: (§1) The following experiment was performed to evaluate the inhibitory activity of the compound of the present invention on more enzymes.
(§2) Particularly, among the compounds of the present invention, the compounds of Example 1, Example 12 and Example 78 were selected and assigned to DiscoverX to measure the kinase selectivity. The experiment was performed by using scanMAX™ Kinase assay panel.
(§3) At this time, the concentration of the drug to be treated to the enzyme was adjusted to 1 uM in DMSO, and the control percentage (% control) was determined according to the following Equation 1. [Example Compound−Positive Control/Negative Control−Positive Control]×100 [Equation 1]
(§4) The enzyme selectivity of the compound of the present invention was judged to be active for the enzyme if the % control was <35 (i.e. less than 35%) for each enzyme.

[2] = molecular target: T2, scanMAX Kinase assay panel (Homo sapiens, UniProt P42336, H1047L); conditions: PIK3CA (H1047L); 1 uM; read-out: Percent Control (%)
T2 construct: purchased DiscoverX
T2 sequence (P42336 whole entry H1047L): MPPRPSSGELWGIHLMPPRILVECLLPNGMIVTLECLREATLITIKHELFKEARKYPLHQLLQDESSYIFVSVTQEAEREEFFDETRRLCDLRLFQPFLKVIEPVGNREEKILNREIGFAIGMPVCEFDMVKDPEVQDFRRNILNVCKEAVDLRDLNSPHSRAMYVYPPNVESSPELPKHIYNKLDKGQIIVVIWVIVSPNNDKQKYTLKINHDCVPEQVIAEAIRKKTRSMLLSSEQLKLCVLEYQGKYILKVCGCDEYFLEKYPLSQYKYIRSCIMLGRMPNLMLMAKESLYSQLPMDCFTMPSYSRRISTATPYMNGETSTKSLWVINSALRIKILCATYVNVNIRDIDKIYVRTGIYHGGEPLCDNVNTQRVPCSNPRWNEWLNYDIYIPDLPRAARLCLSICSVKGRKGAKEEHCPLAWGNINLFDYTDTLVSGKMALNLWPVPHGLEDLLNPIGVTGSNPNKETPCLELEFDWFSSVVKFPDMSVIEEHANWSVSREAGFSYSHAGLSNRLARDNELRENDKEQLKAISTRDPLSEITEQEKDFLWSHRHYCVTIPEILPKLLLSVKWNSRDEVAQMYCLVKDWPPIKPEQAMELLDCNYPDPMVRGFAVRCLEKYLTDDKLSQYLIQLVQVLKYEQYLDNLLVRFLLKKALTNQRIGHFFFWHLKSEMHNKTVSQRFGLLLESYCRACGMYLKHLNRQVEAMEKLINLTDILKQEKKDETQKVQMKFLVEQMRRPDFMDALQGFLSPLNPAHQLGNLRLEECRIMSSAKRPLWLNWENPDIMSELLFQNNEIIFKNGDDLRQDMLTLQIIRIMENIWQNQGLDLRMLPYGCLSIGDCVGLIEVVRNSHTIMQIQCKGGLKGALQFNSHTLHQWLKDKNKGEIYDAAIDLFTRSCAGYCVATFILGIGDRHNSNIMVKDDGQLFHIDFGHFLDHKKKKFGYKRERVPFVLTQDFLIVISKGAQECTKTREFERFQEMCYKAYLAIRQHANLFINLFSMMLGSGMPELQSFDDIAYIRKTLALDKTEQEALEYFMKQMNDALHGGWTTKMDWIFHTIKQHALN
Description: as §1, §2, §3, §4

[3] = molecular target: T3, scanMAX Kinase assay panel (Homo sapiens, UniProt Q04912); conditions: MST1R; 1 uM; read-out: Percent Control (%)
T3 construct: purchased DiscoverX
T3 sequence (Q04912 25-1400): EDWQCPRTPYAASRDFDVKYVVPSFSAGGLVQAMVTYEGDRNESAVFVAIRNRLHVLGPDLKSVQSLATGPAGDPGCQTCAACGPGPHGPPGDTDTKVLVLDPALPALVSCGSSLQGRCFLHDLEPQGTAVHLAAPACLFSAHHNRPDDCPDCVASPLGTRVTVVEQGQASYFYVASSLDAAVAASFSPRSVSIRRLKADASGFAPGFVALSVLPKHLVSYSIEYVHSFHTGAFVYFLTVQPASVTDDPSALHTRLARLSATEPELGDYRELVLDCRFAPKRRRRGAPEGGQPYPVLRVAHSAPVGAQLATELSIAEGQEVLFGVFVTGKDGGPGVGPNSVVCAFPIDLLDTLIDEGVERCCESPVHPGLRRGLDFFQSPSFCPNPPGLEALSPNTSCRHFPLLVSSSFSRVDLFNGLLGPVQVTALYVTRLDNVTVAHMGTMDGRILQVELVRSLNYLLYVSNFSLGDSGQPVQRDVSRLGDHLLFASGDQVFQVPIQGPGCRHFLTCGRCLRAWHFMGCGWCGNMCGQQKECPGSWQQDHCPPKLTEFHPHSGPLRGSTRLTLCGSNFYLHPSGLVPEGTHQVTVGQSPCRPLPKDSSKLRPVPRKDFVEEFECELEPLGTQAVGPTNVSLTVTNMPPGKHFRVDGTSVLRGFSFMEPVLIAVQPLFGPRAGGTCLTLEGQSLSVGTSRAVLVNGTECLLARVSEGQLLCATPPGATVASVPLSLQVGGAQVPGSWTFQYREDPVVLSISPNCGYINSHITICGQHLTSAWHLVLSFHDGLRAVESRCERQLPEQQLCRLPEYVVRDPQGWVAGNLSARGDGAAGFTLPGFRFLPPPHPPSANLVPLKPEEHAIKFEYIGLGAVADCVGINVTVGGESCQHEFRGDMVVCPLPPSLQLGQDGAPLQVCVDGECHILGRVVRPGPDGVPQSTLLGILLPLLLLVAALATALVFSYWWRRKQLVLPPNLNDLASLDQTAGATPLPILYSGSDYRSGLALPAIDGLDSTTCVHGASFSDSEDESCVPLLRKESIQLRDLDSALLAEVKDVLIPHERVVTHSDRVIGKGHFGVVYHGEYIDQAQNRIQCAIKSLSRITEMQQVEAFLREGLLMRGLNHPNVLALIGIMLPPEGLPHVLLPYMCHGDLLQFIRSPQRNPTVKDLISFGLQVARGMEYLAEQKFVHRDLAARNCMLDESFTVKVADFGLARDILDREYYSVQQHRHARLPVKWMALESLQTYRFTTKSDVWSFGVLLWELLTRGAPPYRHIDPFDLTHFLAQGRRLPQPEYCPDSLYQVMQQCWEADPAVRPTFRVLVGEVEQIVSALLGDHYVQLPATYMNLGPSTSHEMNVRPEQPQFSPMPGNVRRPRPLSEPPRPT
Description: as §1, §2, §3, §4

[4] = molecular target: T4, scanMAX Kinase assay panel (Homo sapiens, UniProt Q8IYT8); conditions: ULK2; 1 uM; read-out: Percent Control (%)
T4 construct: purchased DiscoverX
T4 sequence (Q8IYT8 1-1036): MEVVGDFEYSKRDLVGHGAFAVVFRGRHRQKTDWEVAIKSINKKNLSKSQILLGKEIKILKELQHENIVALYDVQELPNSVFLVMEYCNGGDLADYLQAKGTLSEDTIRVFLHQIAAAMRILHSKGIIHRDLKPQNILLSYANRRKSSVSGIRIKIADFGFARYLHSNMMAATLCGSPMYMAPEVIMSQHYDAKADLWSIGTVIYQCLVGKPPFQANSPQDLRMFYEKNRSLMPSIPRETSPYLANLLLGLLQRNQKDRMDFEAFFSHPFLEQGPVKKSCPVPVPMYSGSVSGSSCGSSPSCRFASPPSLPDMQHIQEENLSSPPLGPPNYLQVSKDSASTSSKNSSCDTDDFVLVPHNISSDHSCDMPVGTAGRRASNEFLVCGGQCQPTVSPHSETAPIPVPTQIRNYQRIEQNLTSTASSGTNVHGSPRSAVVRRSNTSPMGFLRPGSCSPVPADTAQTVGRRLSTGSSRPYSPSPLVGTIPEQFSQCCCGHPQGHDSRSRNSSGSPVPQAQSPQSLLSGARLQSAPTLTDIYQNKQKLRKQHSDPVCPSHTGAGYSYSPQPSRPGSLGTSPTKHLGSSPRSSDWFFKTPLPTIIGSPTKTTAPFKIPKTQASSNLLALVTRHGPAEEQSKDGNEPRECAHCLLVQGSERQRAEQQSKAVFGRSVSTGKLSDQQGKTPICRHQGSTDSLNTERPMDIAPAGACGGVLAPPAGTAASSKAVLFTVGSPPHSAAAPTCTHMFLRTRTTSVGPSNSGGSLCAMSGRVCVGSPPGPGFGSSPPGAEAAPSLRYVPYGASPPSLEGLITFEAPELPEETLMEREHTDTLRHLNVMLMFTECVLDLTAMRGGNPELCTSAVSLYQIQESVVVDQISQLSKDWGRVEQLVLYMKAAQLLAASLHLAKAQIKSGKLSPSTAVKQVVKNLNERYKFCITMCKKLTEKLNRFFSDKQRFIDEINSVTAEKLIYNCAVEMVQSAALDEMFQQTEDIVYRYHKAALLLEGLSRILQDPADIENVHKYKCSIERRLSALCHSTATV
Description: as §1, §2, §3, §4

[5] = molecular target: T5, scanMAX Kinase assay panel (Homo sapiens, UniProt Q9Y616); conditions: IRAK3; 1 uM; read-out: Percent Control (%)
T5 construct: purchased DiscoverX
T5 sequence (Q9Y616 1-596): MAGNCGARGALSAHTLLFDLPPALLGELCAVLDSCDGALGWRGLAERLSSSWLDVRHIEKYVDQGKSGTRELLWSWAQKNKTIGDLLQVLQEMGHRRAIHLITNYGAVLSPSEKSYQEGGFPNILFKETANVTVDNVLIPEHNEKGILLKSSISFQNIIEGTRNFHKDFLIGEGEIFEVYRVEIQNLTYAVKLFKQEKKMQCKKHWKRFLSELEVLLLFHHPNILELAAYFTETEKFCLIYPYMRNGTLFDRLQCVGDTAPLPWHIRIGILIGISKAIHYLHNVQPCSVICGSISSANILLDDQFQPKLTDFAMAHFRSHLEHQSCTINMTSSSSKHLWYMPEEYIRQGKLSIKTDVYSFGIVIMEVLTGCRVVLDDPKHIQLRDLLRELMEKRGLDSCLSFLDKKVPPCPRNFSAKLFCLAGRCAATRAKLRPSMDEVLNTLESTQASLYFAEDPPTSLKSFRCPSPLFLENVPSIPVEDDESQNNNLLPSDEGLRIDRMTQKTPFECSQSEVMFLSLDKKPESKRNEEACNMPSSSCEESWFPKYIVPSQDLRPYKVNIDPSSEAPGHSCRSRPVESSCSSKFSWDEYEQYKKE
Description: as §1, §2, §3, §4

T1 sequence (P19784 whole entry): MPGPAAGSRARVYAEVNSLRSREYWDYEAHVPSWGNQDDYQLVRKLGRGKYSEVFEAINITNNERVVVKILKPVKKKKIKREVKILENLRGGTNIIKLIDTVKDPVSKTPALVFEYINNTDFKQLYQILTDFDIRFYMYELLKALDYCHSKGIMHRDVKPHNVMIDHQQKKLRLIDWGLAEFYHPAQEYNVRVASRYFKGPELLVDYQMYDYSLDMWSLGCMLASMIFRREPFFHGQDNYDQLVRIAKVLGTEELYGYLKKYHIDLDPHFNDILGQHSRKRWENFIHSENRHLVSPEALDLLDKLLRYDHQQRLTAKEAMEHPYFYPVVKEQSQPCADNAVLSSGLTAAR

Row | SMILES | remaining binding at 1 µM [1] | remaining binding at 1 µM [2] | remaining binding at 1 µM [3] | remaining binding at 1 µM [4] | remaining binding at 1 µM [5]
1 | Cc1ccc(C(=O)Nc2ccc(CN3CCN(C)CC3)c(C(F)(F)F)c2)cc1C#Cc1cnc2c(Nc3cnn(C)c3)cccn12 [Example 1, 4-methyl-3-((8-((1-methyl-1H-pyrazol-4-yl)amino)imidazo[1,2-a]pyridin-3-yl)ethynyl)-N-(4-((4-methylpiperazin-1-yl)methyl)-3-(trifluoromethyl)phenyl)benzamide] | 56% | 100% | 32% | 62% | 84%
2 | Cc1cn(-c2cc(NC(=O)c3ccc(C)c(C#Cc4cnc5c(Nc6cnn(C)c6)cccn45)c3)cc(C(F)(F)F)c2)cn1 [Example 12, 4-methyl-N-(3-(4-methyl-1H-imidazol-1-yl)-5-(trifluoromethyl)phenyl)-3-((8-((1-methyl-1H-pyrazol-4-yl)amino)imidazo[1,2-a]pyridin-3-yl)ethynyl)benzamide] | 98% | 100% | 87% | 100% | 72%
3 | Cc1ccc(NC(=O)C2(C(=O)Nc3ccc(F)cc3)CC2)cc1C#Cc1cnc2c(Nc3cnn(C(C)C)c3)cccn12 [Example 78] | 100% | 92% | 97% | 90% | 87%

Reference: patent US10870647B2, “Imidazopyridine derivative, method for preparing same, and pharmaceutical composition containing same as active ingredient for preventing or treating cancer” (DAEGU-GYEONGBUK MEDICAL INNOVATION FOUNDATION, priority 2016, dated 2020)
